Activity calls are given as the source filed them.
What was measured:
[1] = target: T1, Sphingosine 1-phosphate receptor 2 (Homo sapiens, UniProt O95136); experiment: Dose Response Cell Based Assay for Agonists of the S1P2 Receptor. [Related pubchem assays: 729, 736, 843 ]; format: functional
[2] = target: Sphingosine 1-phosphate receptor 1 (Homo sapiens, UniProt P21453); experiment: Fluorescence-based counterscreen assay for S1P4 agonists: Cell-based dose response high throughput screening assay to identify agonists of the Sphingosine 1-Phosphate Receptor 1 (S1P1). [Related pubchem assays (depositor defined):AID1509, AID1523, AID1801, AID463107, AID463118, AID463119, AID463122, AID463123, AID463129, AID463225, AID504400, AID504460]; format: functional
[3] = target: Sphingosine 1-phosphate receptor 4 (Homo sapiens, UniProt O95977); experiment: Fluorescence dose response cell-based high throughput screening assay for agonists of the Sphingosine 1-Phosphate Receptor 4 (S1P4). [Related pubchem assays: 1509 (Primary screen.), 1523 (Confirmation screen in triplicates.)]; format: functional
Estrogen receptor = target: T2, Estrogen receptor (Homo sapiens, UniProt P03372);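 further: potency for inhibiting coactivator peptide recruitment to the receptor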
T2 sequence (P03372 whole entry): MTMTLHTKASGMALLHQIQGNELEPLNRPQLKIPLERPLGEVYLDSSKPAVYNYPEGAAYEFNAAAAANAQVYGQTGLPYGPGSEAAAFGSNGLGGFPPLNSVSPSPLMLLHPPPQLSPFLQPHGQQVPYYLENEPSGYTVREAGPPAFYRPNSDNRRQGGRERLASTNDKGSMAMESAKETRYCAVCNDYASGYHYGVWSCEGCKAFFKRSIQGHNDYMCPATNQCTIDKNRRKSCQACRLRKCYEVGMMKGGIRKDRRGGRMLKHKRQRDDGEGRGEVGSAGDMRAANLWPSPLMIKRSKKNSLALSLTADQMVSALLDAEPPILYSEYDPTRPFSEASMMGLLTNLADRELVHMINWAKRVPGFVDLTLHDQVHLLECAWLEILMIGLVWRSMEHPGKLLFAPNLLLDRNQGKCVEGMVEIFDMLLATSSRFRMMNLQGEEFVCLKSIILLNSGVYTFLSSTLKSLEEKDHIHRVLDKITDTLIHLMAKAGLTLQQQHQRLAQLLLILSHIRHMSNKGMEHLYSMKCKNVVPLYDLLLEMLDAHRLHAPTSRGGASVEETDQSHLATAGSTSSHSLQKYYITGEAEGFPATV

Estrogen receptor beta [4] = target: T3, Estrogen receptor beta (Homo sapiens, UniProt Q92731);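 further: recombinant ER-beta bound to coactivator SRC1 peptide in presence of estradiol agonist; inhibitors block coactivator peptide binding and lower the FRET signal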
Estrogen receptor beta [5] = target: T3, Estrogen receptor beta; experiment: ERβ–SRC-3 coactivator interaction inhibitors, confirmation, orthogonal assay, biochemical, ELISA, streptavidin-HRP readout (AID 1060)
[6] = Luminescence Cell-Based Dose Response to Identify Activators of Luciferase Translation or Activity in H4-C Neuroglioblastoma Cells. [Related pubchem assays: 1829 (Project Summary), 1814 (Primary HTS)]; format: functional
[7] = Luminescence Cell-Based Dose Confirmation to Identify Activators of 5'UTR Stem-Loop Driven Alpha-Synuclein mRNA Translation in H4 Neuroglioblastoma Cells. [Related pubchem assays: 1829 (Project Summary), 1814 (Primary HTS)]; format: functional
H4 = experiment: Luminescence Cell-Based Dose Response HTS to Identify Activators of 5'UTR Stem-Loop Driven Prion Protein mRNA Translation in H4 Neuroglioblastoma Cells. [Related pubchem assays: 1829 (Project Summary), 1814 (Primary HTS)]; format: functional; conditions: Homo sapiens
[8] = Luminescence Cell-Based Dose Response HTS to Identify Activators of Luciferase Translation or Activity in H4 […] Cells. [Related pubchem assays: 1829 (Project Summary), 1814 (Primary HTS)]; format: functional
[9] = Luminescence Cell-Based Dose Response to Identify Activators of 5'UTR Stem-Loop Driven Prion Protein mRNA Translation in H4-C Neuroglioblastoma Cells. [Related pubchem assays: 1829 (Project Summary), 1814 (Primary HTS)]; format: functional
[10] = target: Mitogen-activated protein kinase 10 (Homo sapiens, UniProt P53779); experiment: Dose response biochemical screening assay for inhibitors of c-Jun N-Terminal Kinase 3 (JNK3). [Related pubchem assays: 746 ]
Streptococcus = experiment: Group A Streptococcus viability loss, dose response, counter-screen for streptokinase expression inhibitor project, luminescence, BacTiterGlo (AID 1915); format: functional, organism-based;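 further: potency for reduction of bacterial viability or growth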
Streptokinase A = target: T4, Streptokinase A (Streptococcus pyogenes serotype M1, UniProt P10520); experiment: S. pyogenes streptokinase expression inhibitors, potency, dose response, plasminogen activation absorbance, OD405 (AID 1914); format: functional, Streptococcus pyogenes M1 GAS;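 further: secreted streptokinase activity via plasminogen activation per viability signal from cell pellet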
T4 sequence (P10520 whole entry): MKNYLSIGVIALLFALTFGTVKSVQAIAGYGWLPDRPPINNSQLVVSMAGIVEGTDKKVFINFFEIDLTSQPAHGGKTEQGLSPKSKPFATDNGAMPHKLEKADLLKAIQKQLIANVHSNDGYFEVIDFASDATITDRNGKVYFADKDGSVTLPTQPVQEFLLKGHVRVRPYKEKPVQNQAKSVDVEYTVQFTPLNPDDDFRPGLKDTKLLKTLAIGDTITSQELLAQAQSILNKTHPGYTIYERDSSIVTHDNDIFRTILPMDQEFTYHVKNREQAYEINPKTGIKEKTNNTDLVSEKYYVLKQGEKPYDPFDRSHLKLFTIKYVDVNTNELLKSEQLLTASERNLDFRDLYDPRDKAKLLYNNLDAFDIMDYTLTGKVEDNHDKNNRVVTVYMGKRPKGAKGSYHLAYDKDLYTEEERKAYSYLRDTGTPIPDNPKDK

[11] = test system: Streptococcus sp. 'group A'; experiment: growth inhibition of control SK(-) GAS strain, dose response, counter-screen for streptokinase expression inhibitor project, luminescence, kanamycin, BacTiterGlo, confirmation (AID 1900); format: functional, organism-based
[12] = Vero cell cytotoxicity, dose response, cytotoxicity control for Vif-APOBEC3G degradation inhibitor project, Vero cells (AID 1117358); format: functional; conditions: Human immunodeficiency virus 1, Vero
[13] = target: T1, Sphingosine 1-phosphate receptor 2; experiment: Dose Response Cell Based Assay for Antagonists of the S1P2 Receptor. [Related pubchem assays: 856, 736 ]; format: functional
[14] = target: T5, RNA-binding protein pos-1 (Caenorhabditis elegans, UniProt G5EF15); experiment: inhibitors of POS-1/mex-3 RNA binding, dose response, biochemical, fluorescence polarization (AID 1964);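 further: purified POS-1 fused to maltose binding protein made in E. coli; potency of compounds blocking POS-1 binding to fluorescent RNA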
T5 sequence (G5EF15 whole entry): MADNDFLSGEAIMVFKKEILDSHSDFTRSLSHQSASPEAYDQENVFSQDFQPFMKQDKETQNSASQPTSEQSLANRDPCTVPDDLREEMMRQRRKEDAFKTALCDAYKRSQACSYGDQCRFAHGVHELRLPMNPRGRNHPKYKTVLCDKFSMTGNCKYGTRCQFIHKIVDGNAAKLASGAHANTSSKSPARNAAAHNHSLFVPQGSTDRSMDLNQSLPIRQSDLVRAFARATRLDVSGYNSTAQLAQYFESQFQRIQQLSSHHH

[15] = target: T6, Zinc finger protein mex-5 (Caenorhabditis elegans, UniProt Q9XUB2); experiment: MEX-5/TCR-2 RNA interaction inhibitors, dose response, biochemical, C. elegans, fluorescence polarization (AID 1960)
T6 sequence (Q9XUB2 whole entry): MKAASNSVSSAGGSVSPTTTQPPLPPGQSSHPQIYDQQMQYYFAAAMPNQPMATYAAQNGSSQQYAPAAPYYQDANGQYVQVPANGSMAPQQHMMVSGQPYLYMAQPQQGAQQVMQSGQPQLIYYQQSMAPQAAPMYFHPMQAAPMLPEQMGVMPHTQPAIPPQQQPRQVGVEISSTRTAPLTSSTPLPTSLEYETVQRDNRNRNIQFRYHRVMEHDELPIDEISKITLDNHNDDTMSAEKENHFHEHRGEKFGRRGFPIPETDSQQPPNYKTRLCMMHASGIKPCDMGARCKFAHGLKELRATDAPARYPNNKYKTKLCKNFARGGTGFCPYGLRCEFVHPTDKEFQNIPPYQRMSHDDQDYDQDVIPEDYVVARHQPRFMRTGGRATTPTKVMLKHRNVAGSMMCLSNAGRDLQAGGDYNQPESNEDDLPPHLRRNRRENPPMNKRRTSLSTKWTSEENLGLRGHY

[16] = inhibitors of Vif binding to APOBEC3G peptide, primary screen, biochemical, TR-FRET, GST-Vif 1-94, biotin-A3G peptide, dose response retest (AID 1117319); format: functional;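 further: TR-FRET signal of purified GST-Vif binding a biotinylated A3G peptide; inhibitors lower the FRET signal by blocking Vif and A3G binding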
Escherichia coli = experiment: microbe, parasite or virus in culture

T1 sequence (O95136 whole entry): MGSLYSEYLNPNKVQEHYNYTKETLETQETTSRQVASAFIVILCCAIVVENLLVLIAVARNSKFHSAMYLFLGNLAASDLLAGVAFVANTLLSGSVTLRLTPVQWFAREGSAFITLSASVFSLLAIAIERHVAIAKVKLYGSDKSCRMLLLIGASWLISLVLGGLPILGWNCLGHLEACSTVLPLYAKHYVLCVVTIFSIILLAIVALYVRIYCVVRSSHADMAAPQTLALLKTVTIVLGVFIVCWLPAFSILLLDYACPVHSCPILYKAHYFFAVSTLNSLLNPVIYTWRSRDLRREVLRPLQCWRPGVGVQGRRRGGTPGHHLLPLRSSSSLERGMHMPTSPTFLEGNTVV
T3 sequence (Q92731 whole entry): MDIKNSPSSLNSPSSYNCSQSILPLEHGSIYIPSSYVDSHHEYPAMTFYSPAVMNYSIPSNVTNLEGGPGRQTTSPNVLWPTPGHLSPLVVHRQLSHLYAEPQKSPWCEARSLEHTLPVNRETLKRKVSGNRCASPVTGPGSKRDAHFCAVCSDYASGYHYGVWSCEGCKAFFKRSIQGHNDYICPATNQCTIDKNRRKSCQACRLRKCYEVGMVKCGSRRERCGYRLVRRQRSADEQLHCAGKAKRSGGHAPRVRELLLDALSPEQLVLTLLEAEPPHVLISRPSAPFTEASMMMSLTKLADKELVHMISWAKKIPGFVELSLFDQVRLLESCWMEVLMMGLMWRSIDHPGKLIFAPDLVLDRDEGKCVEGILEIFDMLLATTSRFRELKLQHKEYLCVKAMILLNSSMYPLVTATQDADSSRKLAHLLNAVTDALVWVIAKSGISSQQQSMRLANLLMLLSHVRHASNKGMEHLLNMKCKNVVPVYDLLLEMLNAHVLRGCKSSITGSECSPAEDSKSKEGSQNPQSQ
Sphingosine 1-phosphate receptor 4, sequence (O95977 whole entry): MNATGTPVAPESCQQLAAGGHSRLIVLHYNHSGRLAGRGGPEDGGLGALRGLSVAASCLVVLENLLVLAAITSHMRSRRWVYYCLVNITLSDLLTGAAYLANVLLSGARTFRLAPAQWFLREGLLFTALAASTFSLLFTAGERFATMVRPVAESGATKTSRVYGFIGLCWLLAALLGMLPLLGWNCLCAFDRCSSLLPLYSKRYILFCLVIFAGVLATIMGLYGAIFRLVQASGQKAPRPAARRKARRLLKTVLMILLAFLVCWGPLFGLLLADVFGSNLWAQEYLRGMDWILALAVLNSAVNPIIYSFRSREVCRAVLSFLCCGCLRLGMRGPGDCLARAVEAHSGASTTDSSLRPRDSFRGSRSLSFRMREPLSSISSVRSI
Sphingosine 1-phosphate receptor 1, sequence (P21453 whole entry): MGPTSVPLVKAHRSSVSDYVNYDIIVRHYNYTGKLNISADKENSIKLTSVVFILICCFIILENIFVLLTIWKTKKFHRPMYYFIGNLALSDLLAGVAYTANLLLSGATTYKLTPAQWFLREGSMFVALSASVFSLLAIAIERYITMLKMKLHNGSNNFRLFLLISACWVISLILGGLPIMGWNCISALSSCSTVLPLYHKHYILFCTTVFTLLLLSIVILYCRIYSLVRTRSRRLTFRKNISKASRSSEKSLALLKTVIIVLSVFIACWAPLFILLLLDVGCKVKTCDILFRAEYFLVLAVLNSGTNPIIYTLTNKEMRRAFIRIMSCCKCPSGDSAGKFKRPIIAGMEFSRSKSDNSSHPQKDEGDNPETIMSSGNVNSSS
Mitogen-activated protein kinase 10, sequence (P53779 whole entry): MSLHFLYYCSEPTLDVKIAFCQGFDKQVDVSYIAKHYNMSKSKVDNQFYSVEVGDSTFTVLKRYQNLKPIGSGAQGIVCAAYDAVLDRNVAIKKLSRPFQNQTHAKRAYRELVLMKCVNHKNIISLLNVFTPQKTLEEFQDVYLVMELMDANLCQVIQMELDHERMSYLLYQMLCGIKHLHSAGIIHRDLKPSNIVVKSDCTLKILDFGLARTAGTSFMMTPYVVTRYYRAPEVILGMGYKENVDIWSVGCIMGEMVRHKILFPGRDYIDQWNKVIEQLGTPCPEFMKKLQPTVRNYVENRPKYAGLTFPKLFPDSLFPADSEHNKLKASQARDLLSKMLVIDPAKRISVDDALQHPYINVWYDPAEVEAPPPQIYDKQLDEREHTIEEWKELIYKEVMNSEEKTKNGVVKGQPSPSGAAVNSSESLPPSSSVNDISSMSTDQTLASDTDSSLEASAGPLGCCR

Structure (SMILES): C=CCn1c(=O)c(C#N)cc2c(=O)n3ccccc3nc21
- EC50 [1]: 64.4 µM (not active)
- EC50 [2]: 24.6 µM (inactive)
- EC50 [3]: 6.15 µM (active)
- IC50 (Estrogen receptor): 44.7 µM (not active)
- IC50 (Estrogen receptor beta [4]): 21.1 µM (active)
- IC50 (Estrogen receptor beta [5]): < 0.023 µM (not active)

Structure (SMILES): O=C(Nc1ccc2oc(=O)ccc2c1)c1cc2ccccc2o1
- EC50 [6]: 0.317 µM (active)
- EC50 [7]: 0.304 µM (active)
- EC50 (H4): > 120 µM (not active)
- EC50 [8]: < 0.1 µM (active)
- EC50 [9]: 0.579 µM (active)

Structure (SMILES): COc1cc(C(=O)Nc2nccs2)ccc1OCc1c(C)noc1C
- IC50 [10]: > 31 µM (not active)

Structure (SMILES): Cc1cccc(NC2=Nc3ccccc3N3C2=Nc2c(c(C)nn2-c2ccccc2)C3c2ccc(O)c(O)c2)c1 (stereo unspecified)
- EC50 (Streptococcus): 3.2 µM (active)
- EC50 (Streptokinase A): > 150 µM (not active)
- EC50 [11]: 1.54 µM (active)
- CC50 [12]: 17.4 µM (active)
- IC50 [13]: 4.37 µM (active)
- EC50 [14]: 46.4 µM (active)
- EC50 [15]: 28.3 µM (active)

Structure (SMILES): COc1ccc(S(=O)(=O)NCCSCc2ccco2)cc1Cl
- IC50 [16]: > 100 µM (active)
- AC50 (Escherichia coli): 43.2 µM (active)
